# Experimental data published in US20180002366A1, “4'-SUBSTITUTED NUCLEOSIDE REVERSE TRANSCRIPTASE INHIBITORS” (MERCK SHARP & DOHME CORP., priority 2014, published 2018).
# Columns and labels:
# [1] = system: HIV-1 (H9IIIB virus) replication in MT4-GFP cells; test: Viking Assay: antiviral potency in a multiple round HIV-1 infection assay; type: cell-based; settings: Human immunodeficiency virus 1, 10% normal human serum, inhibition of reproductive ratio R0 between ~48 h and ~72 h post-infection, read-out: Viking, IC50 (10% NHS)
# Description: Assessing Antiviral Potency in a Multiple Round HIV-1 Infection Assay.
# Cells were then washed and re-suspended in either RPMI 1640 containing 10% or 50% normal human serum at 1.6×10^5 cells/mL (10% or 50% NHS conditions) or in 100% normal human serum at 2×10^5 cells/mL (100% NHS conditions).
# The increase in the number of green cells over ˜24 h period gives the reproductive ratio, R0, which is typically 5-15 and has been shown experimentally to be in logarithmic phase (data not shown). Inhibition of R0 is calculated for each well, and IC50s determined by non-linear 4-parameter curve fitting.
# [2] = system: HIV-1 (H9IIIB virus) replication in MT4-GFP cells; test: Antiviral Persistence assay; settings: for Fold shift IC50 72 h/24 h: ratio of IC50 72 h to IC50 24 h
# Description: HIV-1 replication was monitored using MT4-gag-GFP clone D3 (hereafter designate MT4-GFP), which are MT-4 cells modified to harbor a GFP reporter gene, the expression of which is dependent on the HIV-1 expressed proteins tat and rev. Productive infection of an MT4-GFP cell with HIV-1 results in GFP expression approximately 24 h post-infection. MT4-GFP cells were maintained at 37° C./5% CO2/90% relative humidity in RPMI 1640 supplemented with 10% fetal bovine serum, 100 U/mL penicillin/streptomycin, and 400 μg/mL G418 to maintain the reporter gene. For 72 hour time point persistence assay (72 h plate) and 24 hour time point control assay (24 h plate), MT4-GFP cells were washed and re-suspended in RPMI 1640 containing 10% normal human serum at either 1.6×10^5 or 2.4×10^5 cells/mL (10% NHS). Compound plates were prepared by dispensing compounds dissolved in DMSO into wells of 384 well cell culture plates ([…]) using an ECHO acoustic dispenser. Each compound was tested in a 10 point serial 3-fold dilution (typical final concentrations: 4.2 μM-0.21 nM). Controls included no inhibitor (DMSO only) and a combination of three antiviral agents (efavirenz, indinavir, and an integrase strand transfer inhibitor at final concentrations of 4 μM each). Cells were added (50 μL/well) to compound plates and were incubated at 37° C./5% CO2/90% relative humidity for 24 hours. The cells were washed with 5×40 uL of RPMI 1640 supplemented with 10% NHS and 100 U/mL penicillin/streptomycin. 72 h plate was return back to 37° C. incubator for additional 48 hour incubation. 40 uL of the cells from each well of the 24 h plate or the 72 h plate (after 48 hour incubation post wash) were transferred to a poly-D-lysine coated plate. The cells were then infected with H9IIIB virus at an approximate multiplicity of infection of 0.1 in the same incubation conditions.
# Infected cells were quantified at ˜24 h post-infection, by counting the number of green cells in each well using an Acumen eX3 scanner. IC50s for the compounds in Table 4 were determined by non-linear 4-parameter curve fitting.
# The antiviral persistence assay is meant to assess for the persistence of antiviral activity upon removal of the nucleoside. […] The publication AIDS Research and Therapy, 2009, 6:5, highlights the value of antiviral persistence.
# HIV-1 RT enzyme = molecular target: T1, HIV-1 RT enzyme (Human immunodeficiency virus type 1 group M subtype B, UniProt P03366); test: RT Polymerase Assay; type: biochemical
# T1 construct: Full-length wild-type and 2 mutant RT proteins were expressed in Escherichia coli BL21(DE3) cells and purified; made in house; host or cells: Escherichia coli BL21(DE3)
# Description: Full-length wild-type and 2 mutant RT proteins were expressed in Escherichia coli BL21(DE3) cells and purified. Briefly, the heterodimeric nucleic acid substrate used in the HIV-1 RT polymerase reactions was generated by annealing biotinylated DNA primer to a 500 nucleotide RNA template. The HIV-1 RT enzyme (final concentration of […]) was combined with an inhibitor compound or DMSO (10% DMSO in the final reaction mixture) in assay buffer (62.5 mM Tris-HCl, pH 7.8, 1.25 mM dithiothreitol, 7.5 mM MgCl2, 100 mM KCl, 0.03% CHAPS, 0.125 mM EGTA). This mixture was pre-incubated for 30 minutes at room temperature in microtiter plates. The polymerization reaction was initiated by the addition of template/primer substrate (final concentration: 16.6 nM) and dNTPs (final concentration: 2 μM dCTP, dGTP, dATP, and 66.6 nM Ru-dUTP). After 90 min of incubation at 37° C., reactions were quenched by the addition of EDTA (25 mM). The resulting mixture was incubated for an additional 5 minutes at room temperature followed by transferring the solution (50 μL) to blocked avidin plate from Meso Scale Discovery (MSD). The mixtures were incubated at room temperature for 60 min prior to the quantification of the reaction product via an ECL 6000 imager instrument.
# [3] = Human immunodeficiency virus 1, 24 h, read-out: IC50 24 h (nM)
# [4] = Human immunodeficiency virus 1, read-out: IC50 72 h (nM)
SMILES,IC50 [1] [nM],"IC50 [2, 3] [nM]","IC50 [2, 4] [nM]",Fold shift IC50 72 h/24 h [2],IC50 (HIV-1 RT enzyme) [nM]
"Cc1cn([C@H]2C[C@H](N=[N+]=[N-])[C@@H](CO)O2)c(=O)[nH]c1=O [AZT, 3′-azido-3′-deoxythymidine, reference compound]",37,37,4710,127,–
"C#C[C@]1(CO)O[C@@H](n2cc(C)c3c(N)ncnc32)C[C@@H]1O [Example 3, (2R,3S,5R)-5-(4-amino-5-methyl-7H-pyrrolo[2,3-d]pyrimidin-7-yl)-2-ethynyl-2-(hydroxymethyl)tetrahydrofuran-3-ol]",485,470,2500,5.3,–
"C#C[C@]1(CO)O[C@@H](n2cc(Br)c3c(N)ncnc32)C[C@@H]1O [Example 5, (2R,3S,5R)-5-(4-amino-5-bromo-7H-pyrrolo[2,3-d]pyrimidin-7-yl)-2-ethynyl-2-(hydroxymethyl)tetrahydrofuran-3-ol]",209,22000,> 42000,>1.9,–
"C#C[C@]1(CO)O[C@@H](n2cc(Cl)c3c(N)ncnc32)C[C@@H]1O [Example 6, (2R,3S,5R)-5-(4-amino-5-chloro-7H-pyrrolo[2,3-d]pyrimidin-7-yl)-2-ethynyl-2-(hydroxymethyl)tetrahydrofuran-3-ol]",128,99,970,9.8,–
"C#C[C@]1(CO)O[C@@H](n2cc(I)c3c(N)ncnc32)C[C@@H]1O [Example 7, (2R,3S,5R)-5-(4-amino-5-iodo-7H-pyrrolo[2,3-d]pyrimidin-7-yl)-2-ethynyl-2-(hydroxymethyl)tetrahydrofuran-3-ol]",1030,17000,17000,1,–
"N#C[C@]1(CO)O[C@@H](n2ccc3c(N)ncnc32)C[C@@H]1O [Example 10, (2R,3S,5R)-5-(4-amino-7H-pyrrolo[2,3-d]pyrimidin-7-yl)-3-hydroxy-2-(hydroxymethyl)tetrahydrofuran-2-carbonitrile]",128,170,1800,10.5,–
"C#C[C@]1(COP(=O)(O)OP(=O)(O)OP(=O)(O)O)O[C@@H](n2ccc3c(N)ncnc32)C[C@@H]1O [Example 13, ammonium ((2R,3S,5R)-5-(4-amino-7H-pyrrolo[2,3-d]pyrimidin-7-yl)-2-ethynyl-3-hydroxytetrahydrofuran-2-yl)methyl triphosphate]",–,–,–,–,933
"C#C[C@]1(COP(=O)(O)OP(=O)(O)OP(=O)(O)O)O[C@@H](n2cc(F)c3c(N)ncnc32)C[C@@H]1O [Example 14, ammonium ((2R,3S,5R)-5-(4-amino-5-fluoro-7H-pyrrolo[2,3-d]pyrimidin-7-yl)-2-ethynyl-3-hydroxytetrahydrofuran-2-yl)methyl triphosphate]",–,–,–,–,210
"C#C[C@]1(COP(=O)(O)OP(=O)(O)OP(=O)(O)O)O[C@@H](n2cc(C)c3c(N)ncnc32)C[C@@H]1O [Example 15, ammonium (2R,3S,5R)-5-(4-amino-5-methyl-7H-pyrrolo[2,3-d]pyrimidin-7-yl)-2-ethynyl-3-hydroxytetrahydrofuran-2-yl)methyl triphosphate]",–,–,–,–,6240
"C#C[C@]1(COP(=O)(O)OP(=O)(O)OP(=O)(O)O)O[C@@H](n2ccc3c(N)nc(Cl)nc32)C[C@@H]1O [Example 16, bis-triethylammonium ((2R,3S,5R)-5-(4-amino-2-chloro-7H-pyrrolo[2,3-d]pyrimidin-7-yl)-2-ethynyl-3-hydroxytetrahydrofuran-2-yl)methyl triphosphate]",–,–,–,–,1820
"C#C[C@]1(COP(=O)(O)OP(=O)(O)OP(=O)(O)O)O[C@@H](n2cc(Cl)c3c(N)ncnc32)C[C@@H]1O [Example 17, ammonium ((2R,3S,5R)-5-(4-amino-5-chloro-7H-pyrrolo[2,3-d]pyrimidin-7-yl)-2-ethynyl-3-hydroxytetrahydrofuran-2-yl)methyl triphosphate]",–,–,–,–,842
"N#C[C@]1(COP(=O)(O)OP(=O)(O)OP(=O)(O)O)O[C@@H](n2ccc3c(N)ncnc32)C[C@@H]1O [Example 18, bis-triethylammonium ((2R,3S,5R)-5-(4-amino-7H-pyrrolo[2,3-d]pyrimidin-7-yl)-2-cyano-3-hydroxytetrahydrofuran-2-yl)methyl triphosphate]",–,–,–,–,4150
"C#C[C@]1(COP(=O)(O)OP(=O)(O)OP(=O)(O)O)O[C@@H](c2ccc3c(N)ncnn23)C[C@@H]1O [Example 19, ammonium ((2R,3S,5R)-5-(4-aminopyrrolo[2,1-f][1,2,4]triazin-7-yl)-2-ethynyl-3-hydroxytetrahydrofuran-2-yl)methyl triphosphate]",–,–,–,–,3540
"C#C[C@]1(COP(=O)(O)OP(=O)(O)OP(=O)(O)O)O[C@@H](c2cnn3c(N)ncnc23)C[C@@H]1O [Example 20, ammonium ((2R,3S,5R)-5-(4-aminopyrazolo[1,5-a][1,3,5]triazin-8-yl)-2-ethynyl-3-hydroxytetrahydrofuran-2-yl)methyl triphosphate]",–,–,–,–,1290
"C#C[C@]1(COP(=O)(O)OP(=O)(O)OP(=O)(O)O)O[C@@H](c2cnc3c(N)ncnn23)C[C@@H]1O [Example 21, ammonium ((2R,3S,5R)-5-(4-aminoimidazo[2,1-f][1,2,4]triazin-7-yl)-2-ethynyl-3-hydroxytetrahydrofuran-2-yl)methyl triphosphate]",–,–,–,–,905
